Converted amounts (≈) assume the structure as drawn.
Experiments:
Assay in all cases: Broth microdilution MIC in CAMHB
Assay type in all cases: cell-based
[1] = test system: P. aeruginosa (ΔmexAB-oprM); settings: Pseudomonas aeruginosa, read-out: Minimum Inhibitory Concentration, P. aeruginosa ΔmexAB-OprM
Method in brief: (§1)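 Colonies from cation-adjusted Mueller Hinton agar are grown in broth (3-5 h, 37° C), adjusted by OD600, and added at 2-8×10^5 CFU/mL to 2-fold compound dilutions. After 16-20 h at 37° C, the lowest concentration without growth is taken as MIC.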

[2] = test system: K. pneumoniae UMM producing SHV-5 and KPC-2; settings: Klebsiella pneumoniae, read-out: Minimum Inhibitory Concentration, K. pneumoniae UMM
Method in brief: as §1

P. aeruginosa ATCC 35151 = settings: Pseudomonas aeruginosa, ATCC35151; MHB; hyper-permeable strain; read-out: Minimum Inhibitory Concentration, P. aeruginosa ATCC 35151
Method in brief: as §1

E. coli D22 = settings: Escherichia coli; E. coli D22 (hyper-permeable); MHB; read-out: Minimum Inhibitory Concentration, E. coli D22
Method in brief: as §1

[3] = test system: K. pneumoniae 848844 producing SHV-11 and KPC-2; settings: Klebsiella pneumoniae, read-out: Minimum Inhibitory Concentration, K. pneumoniae 848844
Method in brief: as §1

[4] = test system: K. pneumoniae SI-117 producing VIM-1; settings: Klebsiella pneumoniae, read-out: Minimum Inhibitory Concentration, K. pneumoniae SI-117
Method in brief: as §1

A. baumannii ATCC 19606 = settings: Acinetobacter baumannii, ATCC19606; MHB; read-out: Minimum Inhibitory Concentration, A. baumannii ATCC 19606
Method in brief: as §1

E. coli AG100 = settings: Escherichia coli; E. coli AG100 (wild-type parent); MHB; read-out: Minimum Inhibitory Concentration, E. coli AG100
Method in brief: as §1

E. coli ATCC 25922 = settings: Escherichia coli, ATCC25922; E. coli ATCC 25922; MHB; read-out: Minimum Inhibitory Concentration, E. coli 25922
Method in brief: as §1

E. coli 901C = settings: Escherichia coli; E. coli 901C (hyper-permeable); MHB; read-out: Minimum Inhibitory Concentration, E. coli 901C
Method in brief: as §1

P. aeruginosa ATCC 27853 = settings: Pseudomonas aeruginosa, ATCC27853; MHB; read-out: Minimum Inhibitory Concentration, P. aeruginosa ATCC 27853
Method in brief: as §1

E. coli AG100A = settings: Escherichia coli, read-out: Minimum Inhibitory Concentration, E. coli AG100A
Method in brief: as §1

SMILES	MIC [1] [µg/mL]	MIC [2] [µg/mL]	MIC (P. aeruginosa ATCC 35151) [µg/mL]	MIC (E. coli D22) [µg/mL]	MIC [3] [µg/mL]	MIC [4] [µg/mL]	MIC (A. baumannii ATCC 19606) [µg/mL]	MIC (E. coli AG100) [µg/mL]	MIC (E. coli ATCC 25922) [µg/mL]	MIC (E. coli 901C) [µg/mL]	MIC (P. aeruginosa ATCC 27853) [µg/mL]	MIC (E. coli AG100A) [µg/mL]
NCCCN1CCN(C(=O)NC(C(=O)N[C@H]2Cc3cccc(C(=O)O)c3OB2O)c2ccc(C(=O)O)cc2)C(=O)C1=O (stereo partly drawn) [Example 39, (3R)-3-(2-(4-(3-aminopropyl)-2,3-dioxopiperazine-1-carboxamido)-2-(4-carboxyphenyl)acetamido)-2-hydroxy-3,4-dihydro-2H-benzo[e][1,2]oxaborinine-8-carboxylic acid]	8 to 16 (≈ 13.8 to 27.5 µM)	32 to 64 (≈ 55 to 110 µM)	< 0.25	2 to 4 (≈ 3.44 to 6.88 µM)	> 128	> 128	> 128	8 to 16 (≈ 13.8 to 27.5 µM)	8 to 16 (≈ 13.8 to 27.5 µM)	0.5 to 1 (≈ 0.86 to 1.72 µM)	8 to 16 (≈ 13.8 to 27.5 µM)	8 to 16 (≈ 13.8 to 27.5 µM)
NS(=O)(=O)NC(C(=O)N[C@H]1Cc2ccc(F)c(C(=O)O)c2OB1O)c1ncc(O)cc1F (stereo partly drawn) [Example 43, (3R)-7-fluoro-3-(2-(3-fluoro-5-hydroxypyridin-2-yl)-2-(sulfamoylamino)acetamido)-2-hydroxy-3,4-dihydro-2H-benzo[e][1,2]oxaborinine-8-carboxylic acid]	> 128	> 128	2 to 4 (≈ 4.24 to 8.47 µM)	> 128	> 128	> 128	> 128	> 128	> 128	> 128	> 128	> 128
NS(=O)(=O)NC(C(=O)N[C@H]1Cc2cccc(C(=O)O)c2OB1O)c1ccc(C(=O)O)c(F)c1 (stereo partly drawn) [Example 44, (3R)-3-(2-(4-carboxy-3-fluorophenyl)-2-(sulfamoylamino)acetamido)-2-hydroxy-3,4-dihydro-2H-benzo[e][1,2]oxaborinine-8-carboxylic acid]	> 128	> 128	32 to 64 (≈ 66.5 to 133 µM)	> 128	> 128	> 128	> 128	> 128	> 128	> 128	> 128	> 128
CCN1CCN(C(=O)NC(C(=O)N[C@H]2Cc3cccc(C(=O)O)c3OB2O)c2ccc(C(N)=O)c(O)c2)C(=O)C1=O (stereo partly drawn) [Example 45, (3R)-3-(2-(4-carbamoyl-3-hydroxyphenyl)-2-(4-ethyl-2,3-dioxopiperazine-1-carboxamido)acetamido)-2-hydroxy-3,4-dihydro-2H-benzo[e][1,2]oxaborinine-8-carboxylic acid]	2 to 4 (≈ 3.53 to 7.05 µM)	32 to 64 (≈ 56.4 to 113 µM)	< 0.25	< 0.25	> 128	> 128	> 128	32 to 64 (≈ 56.4 to 113 µM)	32 to 64 (≈ 56.4 to 113 µM)	2 to 4 (≈ 3.53 to 7.05 µM)	> 128	2 to 4 (≈ 3.53 to 7.05 µM)
NC(=O)c1ccc(C(NC(=O)N2CCN(CCF)C(=O)C2=O)C(=O)N[C@H]2Cc3cccc(C(=O)O)c3OB2O)cc1O (stereo partly drawn) [Example 46, (3R)-3-(2-(4-carbamoyl-3-hydroxyphenyl)-2-(4-(2-fluoroethyl)-2,3-dioxopiperazine-1-carboxamido)acetamido)-2-hydroxy-3,4-dihydro-2H-benzo[e][1,2]oxaborinine-8-carboxylic acid]	2 to 4 (≈ 3.42 to 6.83 µM)	32 to 64 (≈ 54.7 to 109 µM)	< 0.25	< 0.25	> 128	32 to 64 (≈ 54.7 to 109 µM)	> 128	32 to 64 (≈ 54.7 to 109 µM)	32 to 64 (≈ 54.7 to 109 µM)	2 to 4 (≈ 3.42 to 6.83 µM)	> 128	2 to 4 (≈ 3.42 to 6.83 µM)
NCCCN1CCN(C(=O)NC(C(=O)N[C@H]2Cc3cccc(C(=O)O)c3OB2O)c2ccc(C(N)=O)c(O)c2)C(=O)C1=O (stereo partly drawn) [Example 47, (3R)-3-(2-(4-(3-aminopropyl)-2,3-dioxopiperazine-1-carboxamido)-2-(4-carbamoyl-3-hydroxyphenyl)acetamido)-2-hydroxy-3,4-dihydro-2H-benzo[e][1,2]oxaborinine-8-carboxylic acid]	2 to 4 (≈ 3.35 to 6.71 µM)	> 128	< 0.25	2 to 4 (≈ 3.35 to 6.71 µM)	> 128	> 128	> 128	> 128	> 128	8 to 16 (≈ 13.4 to 26.8 µM)	32 to 64 (≈ 53.7 to 107 µM)	2 to 4 (≈ 3.35 to 6.71 µM)
CCN1CCN(C(=O)NC(C(=O)N[C@H]2Cc3cccc(C(=O)O)c3OB2O)c2ccc(C(=O)O)c(OC)c2)C(=O)C1=O (stereo partly drawn) [Example 48, (3R)-3-(2-(4-carboxy-3-methoxyphenyl)-2-(4-ethyl-2,3-dioxopiperazine-1-carboxamido)acetamido)-2-hydroxy-3,4-dihydro-2H-benzo[e][1,2]oxaborinine-8-carboxylic acid]	8 to 16 (≈ 13.7 to 27.5 µM)	> 128	0.5 to 1 (≈ 0.859 to 1.72 µM)	< 0.25	> 128	> 128	> 128	> 128	32 to 64 (≈ 55 to 110 µM)	2 to 4 (≈ 3.43 to 6.87 µM)	> 128	8 to 16 (≈ 13.7 to 27.5 µM)
O=C(Nc1ccccc1)NC(C(=O)N[C@H]1Cc2ccc(F)c(C(=O)O)c2OB1O)c1ncc(O)cc1F (stereo partly drawn) [Example 49, (3R)-7-fluoro-3-(2-(3-fluoro-5-hydroxypyridin-2-yl)-2-(3-phenylureido)acetamido)-2-hydroxy-3,4-dihydro-2H-benzo[e][1,2]oxaborinine-8-carboxylic acid]	32 to 64 (≈ 62.5 to 125 µM)	> 128	2 to 4 (≈ 3.9 to 7.81 µM)	8 to 16 (≈ 15.6 to 31.2 µM)	> 128	> 128	> 128	> 128	> 128	32 to 64 (≈ 62.5 to 125 µM)	> 128	> 128
CCN1CCN(C(=O)NC(C(=O)N[C@H]2Cc3cccc(C(=O)O)c3OB2O)c2ccc(N)c(F)c2)C(=O)C1=O (stereo partly drawn) [Example 50, (3R)-3-(2-(4-amino-3-fluorophenyl)-2-(4-ethyl-2,3-dioxopiperazine-1-carboxamido)acetamido)-2-hydroxy-3,4-dihydro-2H-benzo[e][1,2]oxaborinine-8-carboxylic acid]	2 to 4 (≈ 3.69 to 7.39 µM)	32 to 64 (≈ 59.1 to 118 µM)	0.5 to 1 (≈ 0.924 to 1.85 µM)	2 to 4 (≈ 3.69 to 7.39 µM)	> 128	> 128	> 128	32 to 64 (≈ 59.1 to 118 µM)	32 to 64 (≈ 59.1 to 118 µM)	< 0.25	> 128	2 to 4 (≈ 3.69 to 7.39 µM)
N=C(N)NCCN1CCN(C(=O)NC(C(=O)N[C@H]2Cc3ccc(F)c(C(=O)O)c3OB2O)c2ncc(O)cc2F)C(=O)C1=O (stereo partly drawn) [Example 51, (3R)-7-fluoro-3-(2-(3-fluoro-5-hydroxypyridin-2-yl)-2-(4-(2-guanidinoethyl)-2,3-dioxopiperazine-1-carboxamido)acetamido)-2-hydroxy-3,4-dihydro-2H-benzo[e][1,2]oxaborinine-8-carboxylic acid]	8 to 16 (≈ 12.9 to 25.9 µM)	8 to 16 (≈ 12.9 to 25.9 µM)	0.5 to 1 (≈ 0.809 to 1.62 µM)	8 to 16 (≈ 12.9 to 25.9 µM)	32 to 64 (≈ 51.8 to 104 µM)	32 to 64 (≈ 51.8 to 104 µM)	> 128	32 to 64 (≈ 51.8 to 104 µM)	32 to 64 (≈ 51.8 to 104 µM)	2 to 4 (≈ 3.23 to 6.47 µM)	> 128	8 to 16 (≈ 12.9 to 25.9 µM)

— patent US20230114728A1 (Venatorx Pharmaceuticals, Inc., priority 2019, published 2023)
